Where two headings read alike, the source gives them in different places.
Tests used:
Human venous whole blood = assay: Human whole blood IFN-γ assay; type: cell-based; settings: human whole blood, normalized to 3 μM reference compound with anti-CD3 plus anti-CD28 as 100% activation, read-out: INFg Whole Blood Normalized Agonist EC50;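 further: blood from healthy donors exposed to compound for 1 h before stimulation with anti-CD3 and anti-CD28 at 1 µg/mL each, IFN-γ quantified in supernatant by AlphaLISA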
Protocol: Human Whole Blood IFN-γ Assay
Human venous whole blood (22.5 μL per well), obtained from healthy donors, was pre-treated with compounds for one hour at 37° C. in a humidified 95% air/5% CO2 incubator. The blood was stimulated with 2.5 μL anti-human CD3 and anti-CD28 mAb at a final concentration of 1 μg/mL each for 24 hours at 37° C. IFN-γ in the supernatants was measured using AlphLISA kit (Cat # AL217).

human DGKα = biological target: T1, human DGKα (Homo sapiens, UniProt P23743); assay: DGKα LIPGLO assay (extruded liposome substrate), in vitro DGK inhibition; type: biochemical; settings: liposome (LIPGLO) assay; read-out: DGKa LIPGLO IC50
T1 construct: TVMV protease cleavage site (C); Hexa-His (C); made in house; host or cells: Sf9 insect cells (baculovirus, Bac-to-Bac)
T1 sequence (P23743 with tags, fused parts or gaps): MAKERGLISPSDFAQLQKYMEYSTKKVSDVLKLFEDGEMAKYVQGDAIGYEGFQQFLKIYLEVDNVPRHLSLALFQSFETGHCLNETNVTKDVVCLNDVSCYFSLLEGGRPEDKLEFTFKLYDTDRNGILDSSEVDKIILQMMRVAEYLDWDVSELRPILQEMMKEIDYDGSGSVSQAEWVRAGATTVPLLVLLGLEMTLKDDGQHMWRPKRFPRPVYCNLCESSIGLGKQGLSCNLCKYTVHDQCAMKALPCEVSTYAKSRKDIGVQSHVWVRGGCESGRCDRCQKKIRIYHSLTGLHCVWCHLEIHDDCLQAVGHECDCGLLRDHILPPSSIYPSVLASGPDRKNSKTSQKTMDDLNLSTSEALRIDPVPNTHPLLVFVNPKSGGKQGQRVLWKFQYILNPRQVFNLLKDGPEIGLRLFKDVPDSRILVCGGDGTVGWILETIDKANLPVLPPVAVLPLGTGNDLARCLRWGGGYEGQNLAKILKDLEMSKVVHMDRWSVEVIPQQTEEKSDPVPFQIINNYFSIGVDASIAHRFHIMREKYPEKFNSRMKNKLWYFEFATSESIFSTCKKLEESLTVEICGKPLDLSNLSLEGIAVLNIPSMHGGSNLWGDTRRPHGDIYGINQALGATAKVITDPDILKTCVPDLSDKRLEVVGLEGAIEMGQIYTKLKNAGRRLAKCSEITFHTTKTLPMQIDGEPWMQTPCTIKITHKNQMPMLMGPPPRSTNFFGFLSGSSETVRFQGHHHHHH

human DGKζ = biological target: T2, human DGKζ (Homo sapiens, UniProt Q13574); assay: DGKζ LIPGLO assay (extruded liposome substrate), in vitro DGK inhibition; type: biochemical; settings: liposome (LIPGLO) assay; read-out: DGKz LIPGLO IC50
T2 construct: TVMV protease cleavage site (C); Hexa-His (C); made in house; host or cells: Sf9 insect cells (baculovirus, Bac-to-Bac)
T2 sequence (Q13574 with tags, fused parts or gaps isoform Q13574-4): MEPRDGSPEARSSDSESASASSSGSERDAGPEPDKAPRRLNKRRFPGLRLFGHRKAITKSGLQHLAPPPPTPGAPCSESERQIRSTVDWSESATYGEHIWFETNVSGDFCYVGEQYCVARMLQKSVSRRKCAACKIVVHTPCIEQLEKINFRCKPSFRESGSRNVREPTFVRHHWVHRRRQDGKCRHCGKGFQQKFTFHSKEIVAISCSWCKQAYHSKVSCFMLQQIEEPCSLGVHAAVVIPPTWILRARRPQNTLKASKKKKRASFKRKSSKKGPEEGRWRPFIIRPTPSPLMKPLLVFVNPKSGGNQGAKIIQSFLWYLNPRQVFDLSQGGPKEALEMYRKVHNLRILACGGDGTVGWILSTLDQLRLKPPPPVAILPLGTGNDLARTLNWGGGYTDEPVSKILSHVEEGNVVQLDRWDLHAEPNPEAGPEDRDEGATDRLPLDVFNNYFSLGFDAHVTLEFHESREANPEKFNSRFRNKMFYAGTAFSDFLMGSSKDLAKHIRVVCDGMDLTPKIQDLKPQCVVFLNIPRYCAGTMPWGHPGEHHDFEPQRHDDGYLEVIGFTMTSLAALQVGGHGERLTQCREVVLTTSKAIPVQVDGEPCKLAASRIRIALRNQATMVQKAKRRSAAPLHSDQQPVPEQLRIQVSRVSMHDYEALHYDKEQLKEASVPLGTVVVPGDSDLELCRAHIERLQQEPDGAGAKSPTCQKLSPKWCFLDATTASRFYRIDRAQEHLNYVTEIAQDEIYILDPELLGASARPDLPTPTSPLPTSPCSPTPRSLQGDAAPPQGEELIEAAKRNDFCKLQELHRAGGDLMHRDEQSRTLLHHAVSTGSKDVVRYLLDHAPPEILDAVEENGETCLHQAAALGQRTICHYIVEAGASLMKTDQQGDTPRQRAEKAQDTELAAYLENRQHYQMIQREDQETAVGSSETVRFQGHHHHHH

C[C@@H]1CN(c2cc(=O)n(C)c3ccc(C#N)nc23)[C@@H](C)CN1Cc1ccc(OC(F)(F)F)cc1 [Example 609]
EC50 (Human venous whole blood; Homo sapiens, 24 h): 2.2 µM | IC50 (human DGKα): 0.021 µM | IC50 (human DGKζ): 13 µM

C[C@@H]1CN(c2cc(=O)n(C)c3ccc(C#N)nc23)[C@@H](C)CN1Cc1ccc(OC(F)(F)F)c(F)c1 [Example 610]
EC50 (Human venous whole blood; Homo sapiens, 24 h): 1.8 µM | IC50 (human DGKα): 0.69 µM | IC50 (human DGKζ): 13 µM

C[C@@H]1CN(c2cc(=O)n(C)c3ccc(C#N)nc23)[C@@H](C)CN1Cc1ccc(OC(F)(F)F)c(Cl)c1 [Example 611]
EC50 (Human venous whole blood; Homo sapiens, 24 h): 3.7 µM | IC50 (human DGKα): 6.8 µM | IC50 (human DGKζ): 21 µM

C[C@@H]1CN(c2cc(=O)n(C)c3ccc(C#N)nc23)[C@@H](C)CN1CC1CCOCC1 [Example 623]
EC50 (Human venous whole blood; Homo sapiens, 24 h): 20 µM | IC50 (human DGKα): 130 µM | IC50 (human DGKζ): > 250 µM

C[C@@H]1CN(c2cc(=O)n(C)c3ccc(C#N)nc23)[C@@H](C)CN1C(c1ccc(O)cc1F)C(F)(F)F (stereo partly drawn) [Example 625]
EC50 (Human venous whole blood; Homo sapiens, 24 h): 0.7 µM | IC50 (human DGKα): 0.23 µM | IC50 (human DGKζ): 2.4 µM

C[C@@H]1CN(c2cc(=O)n(C)c3ccc(C#N)nc23)[C@@H](C)CN1C(c1ccc(O)cc1)C(F)(F)F (stereo partly drawn) [Example 626]
EC50 (Human venous whole blood; Homo sapiens, 24 h): 2.5 µM | IC50 (human DGKα): 1.7 µM | IC50 (human DGKζ): 7.9 µM

C[C@@H]1CN(c2cc(=O)n(C)c3ccc(C#N)nc23)[C@@H](C)CN1Cc1ccc(OC(F)(F)F)c(Br)c1 [Example 629]
EC50 (Human venous whole blood; Homo sapiens, 24 h): 4.2 µM | IC50 (human DGKα): 11 µM | IC50 (human DGKζ): 18 µM

C[C@@H]1CN(c2cc(=O)n(C)c3ccc(C#N)nc23)[C@@H](C)CN1Cc1cccc2c1OCCN2 [Example 634]
EC50 (Human venous whole blood; Homo sapiens, 24 h): 2.9 µM | IC50 (human DGKα): 4.3 µM | IC50 (human DGKζ): 9 µM

COc1ccc(C(c2ccc(F)cc2)N2C[C@H](C)N(c3cc(=O)n(C)c4ccc(C#N)nc34)C[C@H]2C)cc1 (stereo partly drawn) [Example 658]
EC50 (Human venous whole blood): 1.5 µM | IC50 (human DGKα): 0.69 µM | IC50 (human DGKζ): 0.59 µM

COc1ccc(C(c2ccc(F)cc2)N2C[C@H](C)N(c3cc(=O)n(C)c4ccc(C#N)nc34)C[C@H]2C)cc1 (stereo partly drawn) [Example 659]
EC50 (Human venous whole blood): 17 µM | IC50 (human DGKα): 1.4 µM | IC50 (human DGKζ): 0.31 µM

C[C@@H]1CN(c2cc(=O)n(C)c3ccc(C#N)nc23)[C@@H](C)CN1C(c1ccc(F)cc1)c1ncccn1 (stereo partly drawn) [Example 676]
EC50 (Human venous whole blood; Homo sapiens, 24 h): 1.8 µM | IC50 (human DGKα): 0.062 µM | IC50 (human DGKζ): 5.4 µM

C[C@@H]1CN(c2cc(=O)n(C)c3ccc(C#N)nc23)[C@@H](C)CN1C(c1ccc(F)cc1)c1ncccn1 (stereo partly drawn) [Example 677]
EC50 (Human venous whole blood): 1.8 µM | IC50 (human DGKα): 0.15 µM | IC50 (human DGKζ): 2.7 µM

C[C@@H]1CN(c2cc(=O)n(C)c3ccc(C#N)nc23)[C@@H](C)CN1C(c1ccc(F)cc1)c1cccc(C(F)(F)F)n1 (stereo partly drawn) [Example 678]
EC50 (Human venous whole blood): 0.44 µM | IC50 (human DGKα): 3.6 µM | IC50 (human DGKζ): 1.5 µM

C[C@@H]1CN(c2cc(=O)n(C)c3ccc(C#N)nc23)[C@@H](C)CN1C(c1ccc(F)cc1)c1cccc(C(F)(F)F)n1 (stereo partly drawn) [Example 679]
EC50 (Human venous whole blood): 1.3 µM | IC50 (human DGKα): 5.4 µM | IC50 (human DGKζ): 0.72 µM

CC(C)Oc1ccc(C(c2cccc(F)c2)N2C[C@H](C)N(c3cc(=O)n(C)c4ccc(C#N)nc34)C[C@H]2C)nc1 (stereo partly drawn) [Example 690]
EC50 (Human venous whole blood; Homo sapiens, 24 h): 3.5 µM | IC50 (human DGKα): 1.5 µM | IC50 (human DGKζ): 0.39 µM

CC(C)Oc1ccc(C(c2cccc(F)c2)N2C[C@H](C)N(c3cc(=O)n(C)c4ccc(C#N)nc34)C[C@H]2C)nc1 (stereo partly drawn) [Example 691]
EC50 (Human venous whole blood): 2.7 µM | IC50 (human DGKα): 4.5 µM | IC50 (human DGKζ): 0.56 µM

C[C@@H]1CN(c2cc(=O)n(C)c3ccc(C#N)nc23)[C@@H](C)CN1C(c1ccc(F)cc1)c1cncn1C (stereo partly drawn) [Example 704]
EC50 (Human venous whole blood; Homo sapiens, 24 h): 17 µM | IC50 (human DGKα): 86 µM | IC50 (human DGKζ): 46 µM

C[C@@H]1CN(c2cc(=O)n(C)c3ccc(C#N)nc23)[C@@H](C)CN1C(c1ccc(F)cc1)c1cncn1C (stereo partly drawn) [Example 705]
EC50 (Human venous whole blood): 9.1 µM | IC50 (human DGKα): 220 µM | IC50 (human DGKζ): 19 µM

C[C@@H]1CN(c2cc(=O)n(C)c3ccc(C#N)nc23)[C@@H](C)CN1C(c1ccc(F)cc1)c1nccn1C (stereo partly drawn) [Example 713]
EC50 (Human venous whole blood): 13 µM | IC50 (human DGKα): 6.6 µM | IC50 (human DGKζ): 51 µM

C[C@@H]1CN(c2cc(=O)n(C)c3ccc(C#N)nc23)[C@@H](C)CN1C(c1ccc(F)cc1)c1nccn1C (stereo partly drawn) [Example 714]
EC50 (Human venous whole blood): 3.9 µM | IC50 (human DGKα): 18 µM | IC50 (human DGKζ): 28 µM

C[C@@H]1CN(c2cc(=O)n(C)c3ccc(C#N)nc23)[C@@H](C)CN1C(c1ccc(F)cc1)c1ncco1 (stereo partly drawn) [Example 717]
EC50 (Human venous whole blood; Homo sapiens, 24 h): 1.6 µM | IC50 (human DGKα): 0.22 µM | IC50 (human DGKζ): 8.1 µM

C[C@@H]1CN(c2cc(=O)n(C)c3ccc(C#N)nc23)[C@@H](C)CN1C(c1ccc(F)cc1)c1ncco1 (stereo partly drawn) [Example 718]
EC50 (Human venous whole blood): 0.83 µM | IC50 (human DGKα): 0.09 µM | IC50 (human DGKζ): 4.6 µM

— US10669272B2, “Substituted naphthyridinone compounds useful as T cell activators” (BRISTOL-MYERS SQUIBB COMPANY, priority 2018, dated 2020)
